As a reminder, the melting point is the temperature of the solid-liquid transition.

Structures can show the parent of a compound that is named as a salt.

The values below come from patent publication US6413947B1, “Anilide derivative, production and use thereof” (Takeda Chemical Industries, Ltd., priority 1997, dated 2002).

`Cc1ccc(-c2csc(/C=C/C(=O)Nc3ccc(CN(C)C4CCOCC4)cc3)c2)cc1` [Compound 212, (E)-N-[4-[N-methyl-N-(tetrahydropyran-4-yl)aminomethyl]-phenyl)-3-[4—(4-methylphenyl)thiophen-2-yl]acrylamide]: the melting point is 188 to 190 °C. The result for `O=C(Nc1ccc(CN2CCCCC2)cc1)c1ccc2ccc(-c3ccccc3)cc2c1` [Compound 58, N-[4—(piperidinomethyl)phenyl]-7-phenylnaphthalene-2-carboxamide] reads 177 to 178 °C; that for `O=C(Nc1cccc(CN2CCCCC2)c1)C1=Cc2cc(-c3ccccc3)ccc2CC1` [Compound 217, 7-phenyl-N-[3—(piperidinomethyl)phenyl]-3,4-dihydronaphthalene-2-carboxamide], 152 to 153 °C; that for `Cc1ccc(-c2ccc3c(c2)C=C(C(=O)Nc2ccc(C(O)c4cccc[n+]4[O-])cc2)CCO3)cc1` (centres unmarked) [Compound 167, N-[4-[hydroxy(1-oxidopyridin-2-yl)methyl]phenyl]-7—(4-methylphenyl)-2,3-dihydro-1-benzoxepine-4-carboxamide], 208 to 210 °C.

`Cc1ccc(-c2cccc(/C=C/C(=O)Nc3ccc(Cc4ccccn4)cc3)c2)cc1` [Compound 190, (E)-N-[4—(2-pyridylmethyl)phenyl]-3—(4-methylphenyl)cinnamamide] showed a melting point of 169 to 171 °C. With `Cc1ccc(-c2ccc3c(c2)C=C(C(=O)Nc2ccc(-c4cccnc4)cc2)CCO3)cc1` [Compound 164, N-[4—(3-pyridyl)phenyl]-7—(4-methylphenyl)-2,3-dihydro-1-benzoxepine-4-carboxamide], the melting point was in the range of 214 to 216 °C. `Cc1ccc(-c2ccc3c(c2)C=C(C(=O)Nc2ccc(CNCc4ccccc4)cc2)CCO3)cc1` [Compound 117, N-(4—((benzylamino)methyl)phenyl)-7—(4-methylphenyl)-2,3-dihydro-1-benzoxepine-4-carboxamide] had a melting point of 147 to 148 °C. For `CN(C)c1ccc(-c2ccc3c(c2)C=C(C(=O)Nc2ccc(CP4(=O)CCCCC4)cc2)CCO3)cc1` [Compound 154, 7—(4-dimethylaminophenyl)-N-(4—((1-oxophosphorinan-1-yl)methyl)phenyl)-2,3-dihydro-1-benzoxepine-4-carboxamide], the melting point is 293 to 294 °C (dec.). The result for `Cc1ccc(-c2ccc3c(c2)C=C(C(=O)Nc2ccc(C[N+]4(C)CCCCC4)cc2)CCS3)cc1` (as salt: iodide) [Compound 94, 1—(N-(7—(4-methylphenyl)-2,3-dihydro-1-benzo-thiepine-4-carbonyl)-4-aminobenzyl)-1-methyl-piperidinium iodide] reads 196 to 197 °C; that for `Cc1ccc(-c2ccc3c(c2)C=C(C(=O)Nc2ccc(-c4ccccn4)cc2)CCO3)cc1` [Compound 159, N-[4—(2-pyridyl)phenyl]-7—(4-methylphenyl)-2,3-dihydro-1-benzoxepine-4-carboxamide], 228 to 229 °C. In the case of `Cc1ccc(-c2ccc3c(c2)C=C(C(=O)Nc2ccc(CN4CCN(c5ncccn5)CC4)cc2)CC3)cc1` [Compound 42, 7—(4-methylphenyl)-N-[4-[1—(2-pyrimidyl)-4-piperazinylmethyl]-phenyl]-3,4-dihydronaphthalene-2-carboxamide], the melting point lay in the range of 203 to 204 °C. Consider `Cc1ccc(-c2ccc3c(c2)C=C(C(=O)Nc2ccc(C[N+]4(C)CCCCC4)cc2)CCO3)cc1` (as salt: chloride) [Compound 97, 1—(N-(7—(4-methylphenyl)-2,3-dihydro-1-benzoxepin-4-carbonyl)-4-aminobenzyl)-1-methylpiperidinium chloride], for which the melting point lay within 231 to 232 °C. Consider `Cc1ccc(-c2cccc(/C=C/C(=O)Nc3ccc(-c4cccnc4)cc3)c2)cc1` [Compound 192, (E)-N-[4—(3-pyridyl)phenyl]-3—(4-methylphenyl)cinnamamide], for which the melting point was in the range of 213 to 214 °C.

Consider `Cc1ccc(-c2ccc3c(c2)C=C(C(=O)Nc2ccc(CN4CCCCC4)cc2)CC3)cc1` [Compound 14, 7—(4-methylphenyl)-N-[4—(piperidinomethyl)phenyl]-3,4-dihydronaphthalene-2-carboxamide], for which the melting point was in the range of 187 to 189 °C.

In turn, `COc1ccccc1N1CCN(Cc2ccc(NC(=O)C3=Cc4cc(-c5ccc(C)cc5)ccc4CC3)cc2)CC1` [Compound 41, N-[4-[1—(2-methoxyphenyl)-4-piperazinylmethyl]phenyl]-7—(4-methylphenyl)-3,4-dihydronaphthalene-2-carboxamide] displayed a melting point of 202 to 205 °C.

In the case of `Cc1ccc(-c2ccc3c(c2)C=C(C(=O)Nc2ccc(C(=O)C4CCCCN4)cc2)CCO3)cc1` (centres unmarked) [Compound 156, N-(4—(piperidin-2-ylcarbonyl)phenyl)-7—(4-methylphenyl)-2,3-dihydro-1-benzoxepine-4-carboxamide], the melting point is 195 to 196 °C (dec.). In the case of `Cc1ccc(-c2cccc(/C=C/C(=O)Nc3ccc(CN4CCCC(CO)C4)cc3)c2)cc1` (centres unmarked) [Compound 66, (E)-N-[4-[3—(hydroxy-methyl)piperidinomethyl]phenyl]-3—(4-methylphenyl)cinnamamide], the melting point lay within 153 to 154 °C. Consider `COc1ccc(-c2ccc3c(c2)C=C(C(=O)Nc2ccc(CN(C)C4CCC5(CC4)OCCO5)cc2)CCS3)cc1` [Compound 283, N-[4-[N-(4,4-ethylenedioxy-cyclohexyl)-N-methylaminomethyl]phenyl]-7-(4-methoxy-phenyl)-2,3-dihydro-1-benzothiepine-4-carboxamide], for which the melting point was 198 to 201 °C. The result for `CN(Cc1ccc(NC(=O)C2=Cc3cc(-c4ccc(OC(F)(F)F)cc4)ccc3OCC2)cc1)C1CCOCC1` [Compound 186, N-[4-[N-methyl-N-(tetrahydropyran-4-yl)aminomethyl]phenyl]-7—(4-trifluoromethoxyphenyl)-2,3-dihydro-1-benzoxepine-4-carboxamide] reads 187 to 188 °C. Consider `Cc1ccc(-c2ccc3c(c2)C=C(C(=O)Nc2ccc(-c4ccc[n+]([O-])c4)cc2)CCO3)cc1` [Compound 165, N-[4—(1-oxidopyridin-3-yl)phenyl]-7—(4-methylphenyl)-2,3-dihydro-1-benzoxepine-4-carboxamide], for which the melting point was 262 °C (dec.). The result for `Cc1ccc(-c2ccc3c(c2)C=C(C(=O)Nc2ccc(CN4CCCCC4)cc2)CC(c2ccccc2)O3)cc1` (centres unmarked) [Compound 102, 7—(4-methylphenyl)-2-phenyl-N-(4—(piperidinomethyl)phenyl)-2,3-dihydro-1-benzoxepine-4-carboxamide] reads 210 to 211 °C; that for `CCOc1ccc(-c2ccc3c(c2)C=C(C(=O)Nc2ccc(CN(C)C4CCOCC4)cc2)CCO3)cc1` [Compound 185, 7—(4-ethoxyphenyl)-N-(4-[N-methyl-N-(tetrahydropyran-4-yl)aminomethyl]phenyl]-2,3-dihydro-1-benzoxepine-4-carboxamide], 174 to 176 °C; that for `COc1ccc(-c2ccc3c(c2)C=C(C(=O)Nc2ccc(CN(C)C4CCC(=O)CC4)cc2)CCS3)cc1` [Compound 284, 7-(4-methoxyphenyl)-N-[4-[N-methyl-N-(4-oxocyclohexyl)aminomethyl]phenyl]-2,3-dihydro-1-benzothiepine-4-carboxamide], 133 to 139 °C.

With `Cc1ccc(-c2cccc(/C=C/C(=O)Nc3ccc(CN4CCCCC4CO)cc3)c2)cc1` (centres unmarked) [Compound 68, (E)-N-[4-[2—(hydroxy-methyl)piperidinomethyl]phenyl]-3—(4-methylphenyl)cinnamamide], the melting point lay within 137 to 139 °C.

`Cc1ccc(-c2ccc3c(c2)C=C(C(=O)Nc2ccc(CN(C)C4CCOCC4)cc2)CC(C)O3)cc1` (centres unmarked) [Compound 104, 7—(4-methylphenyl)-2-methyl-N-(4—((N-tetrahydropyran-4-yl-N-methylamino)methyl)phenyl)-2,3-dihydro-1-benzoxepine-4-carboxamide] showed a melting point of 170 to 171 °C.

The molecule `Cc1ccc(-c2ccc3c(c2)C=C(C(=O)Nc2ccc(Cc4ccccn4)cc2)CCO3)cc1` [Compound 161, N-[4—(2-pyridylmethyl)phenyl]-7—(4-methylphenyl)-2,3-dihydro-1-benzoxepine-4-carboxamide] came in with a melting point of 189 to 190 °C. `Cc1ccc(-c2cc3c(s2)CCCC(C(=O)Nc2ccc(CN(C)C4CCOCC4)cc2)=C3)cc1` [Compound 214, N-[4-[N-methyl-N-(tetrahydropyran-4-yl)aminomethyl]-phenyl]-2—(4-methylphenyl)-7,8-dihydro-6H-cyclohepta-[b]thiophene-5-carboxamide] displayed a melting point of 201 to 203 °C.

In the case of `O=C(Nc1ccc(CN2CCCCC2)cc1)C1=Cc2cc(-c3ccc(F)cc3)ccc2CC1` [Compound 15, 7—(4-fluorophenyl)-N-[4—(piperidinomethyl)phenyl]-3,4-dihydronaphthalene-2-carboxamide], the melting point is 175 to 176 °C. Molecule `Cc1ccc(-c2cccc(/C=C/C(=O)Nc3ccc(CN4CCN(Cc5ccc6c(c5)OCO6)CC4)cc3)c2)cc1` [Compound 57, (E)-N-[4-[1—(3,4-methylenedioxybenzyl)-4-piperazinylmethyl]phenyl]-3—(4-methylphenyl)cinnamamide] registered a melting point of 204 to 207 °C.

In turn, `CN(Cc1ccc(NC(=O)C2=Cc3cc(-c4ccc5c(c4)OCO5)ccc3SCC2)cc1)C1CCOCC1` [Compound 286, 7-(3,4-methylenedioxyphenyl)-N-[4-[N-methyl-N-(tetrahydropyran-4-yl)aminomethyl]phenyl]-2,3-dihydro-1-benzothiepine-4-carboxamide] yielded a melting point of 193 to 194 °C. For the molecule `Cc1ccc(-c2ccc3c(c2)C=C(C(=O)Nc2ccc(CN(C)C4CCOCC4)cc2)CC(c2ccccc2)O3)cc1` (centres unmarked) [Compound 101, 7—(4-methylphenyl)-2-phenyl-N-(4—((N-tetrahydropyran-4-yl-N-methylamino)methyl)phenyl)-2,3-dihydro-1-benzoxepine-4-carboxamide], the melting point lay within 178 to 179 °C.

Turning to `CCCP(=O)(CCC)Cc1ccc(NC(=O)C2=Cc3cc(-c4ccc(C)cc4)ccc3OCC2)cc1` [Compound 168, N-(4-dipropylphosphorylmethylphenyl)-7—(4-methylphenyl)-2,3-dihydro-1-benzoxepine-4-carboxamide], the melting point is 219 to 220 °C.
